We go through 1 compound from paper PMC6060094, “Structural determinants of the catalytic mechanism of Plasmodium CCT, a key enzyme of malaria lipid biosynthesis” (Scientific Reports, 2018).

The target of one experiment is T1, PfCCT(581–775) (Plasmodium falciparum, UniProt P49587, DEL194-211).
T1 construct: The PfCCT(581–775) construct was obtained using previously described PfCCT(528–795); 6xHis (TEV-cleavable) (N, cleaved yes); made in house; host or cells: E. coli BL21 (DE3)
Put plainly: Saturation Transfer Difference NMR (STD-NMR) ligand binding. Conditions: ligand 1 mM; 50 µM PfCCT(581-775), 283 K. The method, then:
In order to provide structural insights into the mechanism of action of PfCCT, we set out to crystallize the constitutively active C-terminal catalytic domain of PfCCT. Several constructs were tested and our attempts were successful only in case of PfCCT(581–775) that corresponds to the exact region visible in the crystal structure of RnCCT (PDB: 3HL4)[20] (Fig. 1a). […] (Table 1 and Supplementary Fig. S1). We further assessed the functionality of PfCCT(581–775) by characterizing its substrate and product binding ability. […] Saturation Transfer Difference Nuclear Magnetic Resonance (STD-NMR) experiments indicated STD signal of CTP, ChoP and CDPCho bound to PfCCT(581–775) at 1 mM, 4 mM and 1 mM concentrations, respectively (Supplementary Fig. S1). This latter result is consistent with previously observed unusually low ChoP affinity of PfCCT[16]. We concluded that PfCCT(581–775) is compatible with substrate and product recognition and may be amenable to structural studies provided that its compromised enzymatic function is taken into account in structure-based interpretations. It is likely that the drop of PfCCT(581–775) enzyme activity is due to the elimination of the C-terminal flanking part as similarly located truncations in the RnCCT catalytic domain also led to severe loss of activity[28],[29]. […]
Kinetic data are fitted with the Michaelis–Menten equation. […] Values of the measured kinetic and thermodynamic parameters and their errors […]
(black) of 50 µM PfCCT(581-775) in 20 mM Tris/HCl pH 7.5, 150 mM NaCl and 2 mM EtSH are shown in presence of c) 1 mM CTP, d) 4 mM ChoP and e) 1 mM CDPCho. […] The 1D 1H STD-NMR spectra were recorded on a Bruker 500 MHz instrument at 283 K with 256 scans and selective saturation of protein resonances at 0.922 ppm using a series of Gaussian shaped pulses (20 ms, 1 ms delay between the pulses). […] All 1D 1H NMR spectra were recorded […]

For the next experiment, the target named is T2, PfCCT(528–795) (Plasmodium falciparum, UniProt P49587, DEL194-211).
T2 construct: previously described PfCCT(528–795) lacking the lysine-rich Plasmodium specific loop (720–737); His-tag; made in house
Details: method as in Nagy et al.[16]. Conditions: ref Nagy et al.[16]; read-out: KM,CTP; cited from earlier work.

The next experiment concerns PfCCT(528–795) T762A. Put plainly: Continuous coupled colorimetric enzyme activity assay (PPase/PNP/MESG). The format is biochemical, Plasmodium falciparum. Conditions: CTP varied 100 μM–2 mM, ChoP fixed 5 mM; read-out: KM,CTP. The protocol:
(§1) Enzyme activity measurements were performed as described previously, using a continuous coupled colorimetric assay with pyrophosphatase (PPase), purine nucleoside phosphorylase (PNP) auxiliary enzymes and the auxiliary substrate 7-methyl-6-thioguanosine (MESG)[16],[30],[39]. For CTP substrate titrations, CTP concentration was varied between 100 μM and 2 mM while ChoP concentration was kept constant at 5 mM. For ChoP titrations, ChoP concentration was varied between 0.5 mM and 20 mM while CTP concentration was kept constant at 1 mM. Initial velocities were calculated from the first 10% of the progress curves using phosphate calibration as reference. Due to the low activity of PfCCT(581–775) and PfCCT(528–795) T761A, T762A variants, the enzyme was used at 10 μM concentration and the slope of the absorbance change was determined after monitoring the reaction for 20 minutes. For measurements with PfCCT(528–795) K663A the following reagent concentrations were used in the enzyme assay: [PPase] = 0.17 U·ml^−1, [PNP] = 1.25 U·ml^−1, [MESG] = 0.1 mM, [Mg^2+] = 5 mM and [PfCCT(528–795) K663A] = 10 μM, to yield adequate signal-to-noise ratio (S/N > 10). Three independent experiments were performed for CTP and ChoP kinetic titrations of PfCCT(528–795) K663A. Global fit of CTP and ChoP kinetic titrations for each enzyme variant was performed in Origin 8.6 using Michaelis–Menten equation, to yield a single kcat parameter.

For a further experiment, the system named is PfCCT(528–795) T761A. The experiment is described as above. The experiment is classed as biochemical, Plasmodium falciparum. Conditions: CTP varied 100 μM–2 mM, ChoP fixed 5 mM; read-out: KM,CTP. The protocol: as §1

A word on the Km: it is the substrate concentration at which the rate is half of its maximum. On to `Nc1ccn([C@@H]2O[C@H](COP(=O)(O)OP(=O)(O)OP(=O)(O)O)[C@@H](O)[C@H]2O)c(=O)n1` [CTP], for which, at PfCCT(581–775), the “STD-NMR signal of ligand bound to enzyme” value is given as “STD signal”. Besides, the figures for the Michaelis constant (Km) on PfCCT(528–795), in the experiment with PfCCT(528–795) T762A and in the experiment on PfCCT(528–795) T761A were 170 ± 20 µM, 610 ± 70 µM and 1270 µM, respectively.
